{"source": "patent US7531500B2", "about": "“Preventing airway mucus production by administration of EGF-R antagonists” (The Regents of the University of California, priority 1998, dated 2009)", "tested_on": "NCI-H292 cells", "experiment": "Alcian blue/PAS staining of NCI-H292 cells for mucin glycoproteins", "assay_type": "cell-based, human", "settings": "TNFα 20 ng/ml; EGF, TGFα each 25 ng/ml", "experimental": "Cell culture. A human pulmonary mucoepidermoid carcinoma cell line, NCI-H292 cells, were grown in RPMI11640 medium containing 10% fetal bovine serum, penicillin (100 U/ml), streptomycin (100 μg/ml) at 37° C. in a humidified 5% CO2 water-jacketed incubator. […] In inhibition studies with an EGF-R tyrosine kinase inhibitor, BIBX1522 (10 μg/ml, generously provided by Boehringer Ingelheim Inc., Ingelheim, Germany), cells were pretreated with BIBX1522 30 min before adding growth factors. After incubation, cells grown in a T-75 flask were used for total RNA extraction or protein extraction, and 8-chamber slides were used for Alcian blue/PAS-staining to visualize mucins.", "data": [{"substance": "TGFα: transforming growth factor alpha, EGF-R ligand (recombinant human; rat synthetic in vivo)", "values": [{"measurement": "PAS-positive staining on incubation with mediator", "result": "increased PAS-positive staining"}]}]}
